We go through three compounds from patent US20260083830A1, “BIODEGRADABLE POLYMERIC PARTICLES FOR DELIVERY OF POSITIVELY CHARGED THERAPEUTIC AGENTS” (REGENTS OF THE UNIVERSITY OF MICHIGAN, priority 2022, published 2026).

For series [1] the following is noted: previous studies; cited from earlier work.
In series [2] the test system is EAE. As to the kind of experiment: EAE murine model, intravenous versus subcutaneous administration of remote loaded nanoparticles (Example VIII). In kind it is in vivo, C57BL/6J mice. Particulars: 100 ug subcutaneous by the tail base; after 60 days.
Series [3] has as its system EAE. The series is described as follows: EAE murine model, effects of remote loaded nanoparticles on Treg response, EAE scores (Example IX). It counts as in vivo, C57BL/6J mice. Particulars: 10 ug subcutaneous by the tail base. How it is done: EAE was induced in a murine model as described in Example VIII. There were 3 treatment groups and one group that only received phosphate-buffered saline (PBS). For the treatment groups, 10 ug of self-antigen in 1 mL PBS was aliquoted from the MOG 38-50 loaded PLGA nanoparticles batch based on loading % determined by UPLC. The first treatment group received remote loaded nanoparticles injected subcutaneously by the tail base. The second treatment group received remote loaded nanoparticles injected intravenously in the tail. The third treatment group received 10 ug of free MOG 38-50 peptide injected subcutaneously by the tail base. EAE was assessed daily using the 0 to 5 clinical score scale described in Example VII.

Series [4] in a line: Net charge of peptide at neutral pH. In kind it is physicochemical. Particulars: owing to 2 Arginine residues.

For the compound `CCNC(=O)[C@@H]1CCCN1C(=O)[C@H](CCCNC(=N)N)NC(=O)[C@H](CC(C)C)NC(=O)[C@@H](CC(C)C)NC(=O)[C@H](Cc1ccc(O)cc1)NC(=O)[C@H](CO)NC(=O)[C@H](Cc1c[nH]c2ccccc12)NC(=O)[C@H](Cc1c[nH]cn1)NC(=O)[C@@H]1CCC(=O)N1` [leuprolide], the “charge at neutral pH” value in series [1] is listed as “~+1”.
As for `C[C@@H](O)[C@@H]1NC(=O)[C@H](CCCCN)NC(=O)[C@@H](Cc2c[nH]c3ccccc23)NC(=O)[C@H](Cc2ccccc2)NC(=O)[C@@H](NC(=O)[C@H](N)Cc2ccccc2)CSSC[C@@H](C(=O)N[C@H](CO)[C@@H](C)O)NC1=O` [octreotide], the “charge at neutral pH” value in series [1] is reported as “~+1.7”.
Take “MOG 38-50 (GWYRSPFSRVVHL) [free MOG 38-50 peptide]”: the EAE clinical score in the series with EAE [2] came out at 3.5. Moreover, the figures for the EAE score in the series on EAE [3] (after day 8) and with EAE [3] (day 8) were approximately 3.0 and approximately 2.5, respectively. Moreover, in series [4], the charge entry is on record as “> +1”.
